Reference: patent publication US20180303817A1, “THERAPEUTIC AGENT FOR BREAST CANCER” (Eisai R&D Management Co., Ltd., priority 2015, published 2018)

How the values were obtained:
[1] = system: human-derived breast cancer cell line MFM223; assay: Anti-tumor effect of compound A in nude mice with subcutaneously transplanted human breast cancer cell line MFM223 (tumor volume); format: in vivo, nude mice (BALB/cAJcl-nu/nu, female)
Protocol: (§1) Four nude mice (BALB/cAJcl-nu/nu, female, CLEA Japan, Inc.) per group were used to evaluate an anti-tumor effect when compound A was administered.
A human-derived breast cancer cell line MFM223 (ECACC) was subjected to preparatory conditioning. The MFM223 cells were suspended at a concentration of 2×10^8 cells/mL in HBSS (Wako Pure Chemical Industries, Ltd.). To the resulting suspension was added an equal volume of Matrigel™ matrix (Becton, Dickinson and Company, Japan), and the mixture was mixed sufficiently. Then, 0.1 mL of the mixture was subcutaneously transplanted into the right flank of each nude mouse (CAnN.Cg-Foxnlnu/Crlalj, female, Charles River Laboratories International, Inc.). During rearing, β-estradiol (Wako Pure Chemical Industries, Ltd.) prepared at a final concentration of 2.5 μg/mL in drinking water was orally administered. 46 Days after the transplantation, a tumor formed was resected and cut into small pieces. HBSS containing Type I collagenase (SIGMA) at a final concentration of 380 units/mL and Deoxyribonuclease I (SIGMA) at a final concentration of 160 K units/mL was added thereto, and the mixture was stirred at 37° C. After the mixture was made to pass through a 100-μm cell strainer (Falcon®) and centrifuged to collect the cells, those cells were cultured in 10% bovine serum-containing EMEM culture medium.
The cells as so obtained were suspended at a concentration of 1.4×10^8 cells/mL in 10% bovine serum-containing EMEM culture medium (Wako Pure Chemical Industries, Ltd.). To the resulting suspension was added an equal volume of Matrigel™ matrix (Becton, Dickinson and Company, Japan), and the resulting mixture was mixed sufficiently. Next, 0.1 mL of the mixture was subcutaneously transplanted into the right flank of each mouse, and then, the anti-tumor effect was evaluated.
20 Days after the transplantation, an electronic digital caliper (Digimatic™ Caliper; Mitutoyo Corporation) was used to measure the long and short diameters of a tumor of interest. The mice were grouped such that each group had substantially the same average of the tumor volumes. Note that each tumor volume was calculated by using the following equation:
Tumor Volume (mm^3)=Long Diameter (mm)×Short Diameter (mm)×Short Diameter (mm)/2.
(§2) Compound A as obtained in Production Example 1 was dissolved at a concentration of 0.625 mg/mL, or 2.5 mg/mL in purified water.
(§3) Then, the solution was orally administered at a dose of 20 mL/kg, i.e., 12.5 mg/kg or 50 mg/kg, once a day for 12 days to the mice of each group. Purified water was administered at 20 mL/kg to the control group.
(§4) On day 3, 7, and 12 after initiation of the administration, the tumor volume of each mouse was measured. In addition, Table 2 and FIG. 2 show changes in body weight over time.

[2] = Changes in body weight over time in MFM223 tumor-bearing nude mice; format: in vivo, nude mice (BALB/cAJcl-nu/nu, female)
Protocol: as §1, §2, §3, §4

[3] = 12.5 mg/kg orally once a day, Day 3
[4] = 12.5 mg/kg orally once a day, Day 7
[5] = 12.5 mg/kg orally once a day, Day 12
[6] = 50 mg/kg orally once a day, Day 3
[7] = 50 mg/kg orally once a day, Day 7
[8] = 50 mg/kg orally once a day, Day 12

Q: For `CNC(=O)n1ccc2cc(Oc3ccnc(NC(=O)c4ccc(C5CCN(CCO)CC5)cc4)c3)c(OCCOC)cc21` [Compound A, 5-((2-(4-(1-(2-hydroxyethyl)piperidin-4-yl)benzamide)pyridin-4-yl)oxy)-6-(2-methoxyethoxy)-N-methyl-1H-indole-1-carboxamide 1.5 succinate], which “Changes in tumor volume over time” value ([1]; 12.5 mg/kg orally once a day, Day 0 (at grouping, before treatment effect)) is on record?
A: The value was 151.6 mm^3.

Q: What about the “Changes in tumor volume over time” value [1, 3] of the same molecule?
A: The value was 139.0 mm^3.

Q: What about the “Changes in tumor volume over time” value [1, 4] of the same molecule?
A: The value was 143.8 mm^3.

Q: And the “Changes in tumor volume over time” value [1, 5]?
A: The value was 148.2 mm^3.

Q: And the “Changes in tumor volume over time” value ([1]; 50 mg/kg orally once a day, Day 0 (at grouping, before treatment effect))?
A: The value was 151.6 mm^3.

Q: And the “Changes in tumor volume over time” value [1, 6]?
A: The value was 112.8 mm^3.

Q: And the “Changes in tumor volume over time” value [1, 7]?
A: Its value is 99.3 mm^3.

Q: And the “Changes in tumor volume over time” value [1, 8]?
A: Its value is 87.2 mm^3.

Q: What about the “Changes in body weight over time” value ([2]; 12.5 mg/kg orally once a day, Day 0) of the same molecule?
A: The value was 21.1 g.

Q: What about the “Changes in body weight over time” value [2, 3] of the same molecule?
A: Its value is 21.4 g.

Q: And the “Changes in body weight over time” value [2, 4]?
A: Its value is 22.6 g.

Q: And the “Changes in body weight over time” value [2, 5]?
A: The value was 23.2 g.

Q: And the “Changes in body weight over time” value ([2]; 50 mg/kg orally once a day, Day 0)?
A: Its value is 21.5 g.

Q: What about the “Changes in body weight over time” value [2, 6] of the same molecule?
A: The value was 22.8 g.

Q: What about the “Changes in body weight over time” value [2, 7] of the same molecule?
A: Its value is 23.8 g.

Q: And the “Changes in body weight over time” value [2, 8]?
A: The value was 24.0 g.
